Test systems include Listeria monocytogenes; Escherichia coli UB1005; Pseudomonas aeruginosa; Pasteurella multocida; Listeria innocua; Leuconostoc lactis; Streptococcus uberis; Enterococcus faecalis; Micrococcus luteus; Escherichia coli; Enterobacter cloacae; Bacillus cereus.
Common to all, as to assay: ≥ marks a high value that may be exact or a test limit, other limits are often not marked, values filed in µg/mL are converted to µM
The subject of experiment [1] is Staphylococcus aureus ATCC 25923.
The test system of experiment [2] is Enterococcus faecalis ATCC 29212.
The test system of experiment [3] is Salmonella enterica subsp. enterica serovar Typhimurium ATCC 14028s.
Experiment [4] relates to Staphylococcus epidermidis.
Experiment [5] has as its system Pseudomonas aeruginosa K799.
The subject of experiment [6] is Staphylococcus epidermidis ATCC 12228.
Experiment [7] deals with Salmonella enterica subsp. enterica serovar Typhi CMCC 50071.
The test system of experiment [8] is Salmonella enterica subsp. enterica serovar Pullorum C79-13.
Experiment [9] deals with Salmonella enterica subsp. enterica serovar Typhimurium ATCC 14028.
Experiment [10] relates to Staphylococcus aureus ATCC 29213.
The subject of experiment [11] is Salmonella enterica subsp. enterica serovar Typhimurium C77-31.
In experiment [12] the test system is Citrobacter freundii MTCC 1658.
Experiment [13] relates to Enterococcus faecalis MTCC 439.
The subject of experiment [14] is Escherichia coli K12 MG1655.
The subject of experiment [15] is Klebsiella oxytoca MTCC 2275.
The subject of experiment [16] is Staphylococcus haemolyticus MTCC 3383.
Experiment [17] has as its system Bordetella bronchiseptica MTCC 6837.
Experiment [18] concerns Shigella flexneri MTCC 1457.
Experiment [19] deals with Staphylococcus aureus MTCC 3160.
The test system of experiment [20] is Proteus vulgaris MTCC 1771.
For experiment [21], the system named is Alkalihalobacillus alcalophilus MTCC 860.
The subject of experiment [22] is Klebsiella aerogenes MTCC 111.
The test system of experiment [23] is Proteus mirabilis MTCC 3158.
Experiment [24] deals with Acinetobacter baumannii MTCC 9829.
Experiment [25] deals with Salmonella enterica MTCC 9844.
Experiment [26] deals with Pluralibacter gergoviae MTCC 3826.
Experiment [27] has as its system Alcaligenes faecalis MTCC 1937.
In experiment [28] the test system is Corynebacterium glutamicum MTCC 2679.
The test system of experiment [29] is Haemophilus influenzae MTCC 621.
Experiment [30] has as its system Vibrio cholerae MTCC 3904.
In experiment [31] the test system is Citrobacter koseri MTCC 1657.
The subject of experiment [32] is Pseudomonas aeruginosa MTCC 3542.
Experiment [33] concerns Klebsiella pneumoniae MTCC 7407.
In experiment [34] the test system is Shigella boydii MTCC 11947.
Experiment [35] concerns Stenotrophomonas maltophilia MTCC 1890.

Structures are written as SMILES. ≈ marks a conversion by molar mass, not a printed value.

`CC[C@H](C)[C@H](NC(=O)[C@H](CCCN=C(N)N)NC(=O)[C@H](CO)NC(=O)[C@H](CC(C)C)NC(=O)[C@@H](N)CCCN=C(N)N)C(=O)N[C@H](C(=O)N[C@H](C(=O)N[C@H](C(=O)N[C@@H](CCCN=C(N)N)C(=O)N[C@H](C(=O)N[C@@H](CO)C(=O)N[C@@H](CCCN=C(N)N)C(N)=O)C(C)C)[C@@H](C)CC)C(C)C)C(C)C` [RLSRIVVIRVSR]: the MIC in experiment [1] amounted to 2.75 µM (≈ 4 µg/mL); with Listeria monocytogenes it was 0.172 µM (≈ 0.25 µg/mL); in [2] it was 2.75 µM (≈ 4 µg/mL); against Escherichia coli UB1005, 1.38 µM (≈ 2 µg/mL); in [3], 22 µM (≈ 32 µg/mL); in [4], 0.688 µM (≈ 0.999 µg/mL). Also, the MIC in [5] worked out at 11 µM (≈ 16 µg/mL).
`NC(=O)CC[C@H](NC(=O)[C@H](Cc1c[nH]c2ccccc12)NC(=O)[C@H](CCCN=C(N)N)NC(=O)[C@H](CCCN=C(N)N)NC(=O)[C@H](Cc1c[nH]c2ccccc12)NC(=O)[C@@H](N)Cc1ccccc1)C(=O)N[C@@H](Cc1c[nH]c2ccccc12)C(=O)N[C@@H](CCCN=C(N)N)C(=O)N[C@@H](CCCN=C(N)N)C(=O)N[C@@H](CCCN=C(N)N)C(=O)N[C@@H](Cc1c[nH]c2ccccc12)C(=O)N[C@@H](Cc1ccccc1)C(N)=O` [FWRRWQWRRRWF]: the MIC was 16 µM (≈ 31.4 µg/mL) in [1]; 8 µM (≈ 15.7 µg/mL) in experiment [6]; ≥ 128 µM in experiment [7]; 8 µM (≈ 15.7 µg/mL) in [8]; 128 µM (≈ 252 µg/mL) in experiment [9]; 16 µM (≈ 31.4 µg/mL) in the experiment with Escherichia coli UB1005. Further, the values for the MIC in experiment [10] and in [11] were > 128 µM and 16 µM (≈ 31.4 µg/mL), respectively.
Turning to `CC(C)C[C@H](NC(=O)[C@H](Cc1cnc[nH]1)NC(=O)[C@H](CCCN=C(N)N)NC(=O)[C@H](CC(C)C)NC(=O)[C@H](CCCN=C(N)N)NC(=O)[C@H](CCC(N)=O)NC(=O)[C@@H](NC(=O)[C@H](C)NC(=O)[C@H](CCCN=C(N)N)NC(=O)[C@H](CCCN=C(N)N)NC(=O)[C@H](C)NC(=O)[C@@H](NC(=O)[C@H](CCCN=C(N)N)NC(=O)[C@H](Cc1c[nH]c2ccccc12)NC(=O)[C@@H](N)CCC(=O)O)C(C)C)C(C)C)C(=O)N[C@@H](C)C(=O)N[C@@H](CCCN=C(N)N)C(=O)N[C@@H](CCCN=C(N)N)C(=O)N[C@@H](Cc1ccc(O)cc1)C(=O)N[C@@H](Cc1cnc[nH]1)C(=O)O` [EWRVARRAVQRLRHLARRYH], the MIC in [12] was 24.3 µM (≈ 64 µg/mL); in [13], ≥ 48.7 µM; in experiment [14] it was 6.08 µM (≈ 16 µg/mL); in [15] it was 3.04 µM (≈ 8 µg/mL); in [16], 6.08 µM (≈ 16 µg/mL); in experiment [17], 0.76 µM (≈ 2 µg/mL). The MIC in [18] was 0.38 µM (≈ 1 µg/mL); in experiment [19], ≥ 48.7 µM; in [20], ≥ 48.7 µM; in [21], 6.08 µM (≈ 16 µg/mL); in experiment [22] it was ≥ 48.7 µM; in [23] it was ≥ 48.7 µM. The MIC in [24] was 6.08 µM (≈ 16 µg/mL); in experiment [9] it was 6.08 µM (≈ 16 µg/mL); in experiment [25] it was 6.08 µM (≈ 16 µg/mL); in experiment [26] it was ≥ 48.7 µM; in [27], ≥ 48.7 µM; in [28], 0.38 µM (≈ 1 µg/mL). Besides, the MIC was 3.04 µM (≈ 8 µg/mL) in [29]; ≥ 48.7 µM in experiment [30]; 6.08 µM (≈ 16 µg/mL) in experiment [31]; ≥ 48.7 µM in [32]; ≥ 48.7 µM in experiment [33]; 3.04 µM (≈ 8 µg/mL) in [34]. Further, in experiment [35], the MIC came to 24.3 µM (≈ 64 µg/mL).
On to `CC[C@H](C)[C@H](NC(=O)CNC(=O)[C@H](CO)NC(=O)[C@@H](NC(=O)[C@H](CC(C)C)NC(=O)[C@H](CCC(=O)O)NC(=O)[C@H](CC(N)=O)NC(=O)[C@H](C)NC(=O)[C@H](CCCCN)NC(=O)[C@H](CCC(=O)O)NC(=O)[C@H](CCCCN)NC(=O)[C@@H](NC(=O)[C@H](CCCCN)NC(=O)[C@H](CCC(=O)O)NC(=O)[C@H](Cc1c[nH]c2ccccc12)NC(=O)[C@H](CC(C)C)NC(=O)CN)C(C)C)C(C)C)C(=O)N[C@H](C(=O)N[C@@H](CCC(=O)O)C(=O)NCC(=O)N[C@H](C(=O)N[C@@H](CCCCN)C(N)=O)C(C)C)C(C)C` [GLWEKVKEKANELVSGIVEGVK], for which the MIC was > 41.4 µM in experiment [1]; > 41.4 µM in the experiment on Pseudomonas aeruginosa; ≥ 41.4 µM in the experiment on Pasteurella multocida; ≥ 41.4 µM with Listeria innocua; ≥ 41.4 µM with Leuconostoc lactis; ≥ 41.4 µM against Streptococcus uberis. Also, the MIC with Enterococcus faecalis was ≥ 41.4 µM; with Micrococcus luteus, ≥ 41.4 µM; against Escherichia coli, > 41.4 µM; in the experiment with Enterobacter cloacae, ≥ 41.4 µM; in experiment [10], > 41.4 µM; in [4], ≥ 41.4 µM. In the experiment on Bacillus cereus, the MIC is ≥ 41.4 µM.

Values taken from DBAASP.
